Source: the NIST ThermoML archive (doi:10.1021/je700338t)

Legend:
[1] = 298.15 K, 101.33 kPa, Liquid
[2] = refractive index (Na D-line) (dimensionless); conditions: 298.15 K, 101.33 kPa, Liquid
[3] = refractive index (Na D-line) (dimensionless); xn = mol fraction of the nth substance listed; conditions: 298.15 K, 101 kPa, Liquid
[4] = xn = mol fraction of the nth substance listed; conditions: 298.15 K, 101 kPa, Liquid; for mass density: Vibrating tube method

CCCCn1cc[n+](C)c1.F[P-](F)(F)(F)(F)F [1-butyl-3-methylimidazolium hexafluorophosphate]
Conditions	mass density [kg/m3]	refractive index	speed of sound [m/s]	viscosity [mPa·s]
[1]	1366.07	–	1443.5	212.1
[2]	–	1.4095	–	–

CCCCn1cc[n+](C)c1.F[P-](F)(F)(F)(F)F [1-butyl-3-methylimidazolium hexafluorophosphate] + C1CCOC1
Conditions	mass density, [4] [kg/m3]	refractive index, [3]	speed of sound, [4] [m/s]	viscosity, [4] [mPa·s]
x1 = 0.0199	911.565	–	1279.2	–
x1 = 0.0376	936.57	–	1279.9	–
x1 = 0.0502	–	1.4084	–	0.75
x1 = 0.0737	979.097	–	1287.9	–
x1 = 0.0967	–	1.4117	–	1.14
x1 = 0.15	1055.63	–	1312.6	–
x1 = 0.1524	–	1.4125	–	1.732
x1 = 0.1999	–	1.4126	–	2.476
x1 = 0.2003	1095.84	–	1329.2	–
x1 = 0.2486	1129.41	–	1343.7	–
x1 = 0.2969	–	1.413	–	4.937
x1 = 0.3004	1159.97	–	1357.3	–
x1 = 0.3484	–	1.4128	–	6.979
x1 = 0.3491	1185.7	–	1368.6	–
x1 = 0.3994	–	1.4127	–	10.06
x1 = 0.4484	–	1.4126	–	14.54
x1 = 0.4634	1235.91	–	1390.5	–
x1 = 0.5028	–	1.4117	–	18.5
x1 = 0.5808	1276.69	–	1406.9	–
x1 = 0.6047	–	1.4115	–	33.63
x1 = 0.6941	1306.09	–	1418.7	–
x1 = 0.7016	–	1.411	–	52.84
x1 = 0.7996	1329.25	–	1427.8	–
x1 = 0.805	–	1.4105	–	90.82
x1 = 0.8991	1348.14	–	1435.7	–
x1 = 0.9595	–	1.4095	–	186.86

CCCCn1cc[n+](C)c1.F[P-](F)(F)(F)(F)F [1-butyl-3-methylimidazolium hexafluorophosphate] + CC#N
Conditions	refractive index, [3]	viscosity, [4] [mPa·s]
x1 = 0.0496	1.3575	0.556
x1 = 0.1016	1.3687	0.864
x1 = 0.147	1.3754	1.187
x1 = 0.2022	1.3819	1.866
x1 = 0.2995	1.3902	3.792
x1 = 0.3524	1.3934	5.308
x1 = 0.4036	1.3959	7.674
x1 = 0.4337	1.3974	9.153
x1 = 0.4955	1.3998	14.44
x1 = 0.5892	1.4024	23.84
x1 = 0.6857	1.4048	40.69
x1 = 0.8046	1.4068	81.53
x1 = 0.8055	1.4069	86.27
x1 = 0.9176	1.4084	154.06

CCCCn1cc[n+](C)c1.F[P-](F)(F)(F)(F)F [1-butyl-3-methylimidazolium hexafluorophosphate] + CO
Conditions	refractive index, [3]	viscosity, [4] [mPa·s]
x1 = 0.0503	1.348	0.913
x1 = 0.0993	1.3636	1.483
x1 = 0.1517	1.371	2.331
x1 = 0.1969	1.3768	3.059
x1 = 0.3024	1.3872	6.057
x1 = 0.3531	1.3892	8.072
x1 = 0.4106	1.3941	11.03
x1 = 0.451	1.3961	13.52
x1 = 0.502	1.3986	17.29
x1 = 0.6015	1.4015	27.41
x1 = 0.7082	1.4045	45.95
x1 = 0.7989	1.4066	66.79
x1 = 0.8889	1.4078	107.94

CCCCn1cc[n+](C)c1.F[P-](F)(F)(F)(F)F [1-butyl-3-methylimidazolium hexafluorophosphate] + C[S+](C)[O-]
Conditions	mass density, [4] [kg/m3]	refractive index, [3]	speed of sound, [4] [m/s]	viscosity, [4] [mPa·s]
x1 = 0.0011	1096.21	–	1484.8	–
x1 = 0.0024	1097.26	–	1484.9	–
x1 = 0.0187	1109.73	–	1483.5	–
x1 = 0.0321	1119.44	–	1482.4	–
x1 = 0.05	–	1.4676	–	2.749
x1 = 0.0552	1135.09	–	1480.5	–
x1 = 0.0635	1140.41	–	1479.9	–
x1 = 0.0996	1161.89	–	1477.3	–
x1 = 0.0997	–	1.4606	–	3.698
x1 = 0.1477	–	1.4546	–	4.962
x1 = 0.153	1189.47	–	1473.7	–
x1 = 0.1977	–	1.4491	–	6.489
x1 = 0.2381	1225.52	–	1469.4	–
x1 = 0.2995	–	1.4396	–	11.95
x1 = 0.3372	1258.28	–	1464.5	–
x1 = 0.3524	–	1.4361	–	16
x1 = 0.3997	–	1.4331	–	21.17
x1 = 0.4328	–	1.4309	–	24.61
x1 = 0.5018	–	1.4278	–	36.98
x1 = 0.5586	1309.44	–	1454.9	–
x1 = 0.598	–	1.4226	–	56.31
x1 = 0.7043	–	1.4182	–	83.73
x1 = 0.7791	1342.89	–	1448.2	–
x1 = 0.7812	–	1.4158	–	117.54
x1 = 0.893	–	1.4125	–	173.32
x1 = 0.925	1359.3	–	1444.7	–

CC#N [acetonitrile]
[1]
Conditions	mass density [kg/m3]	viscosity [mPa·s]
–	776.565	0.339

Conditions	refractive index	speed of sound [m/s]
[1], Sing-around technique in a fixed-path interferometer	–	1278.7
[2], Standard Abbe refractometry	1.3419	–

C[S+](C)[O-] [dimethyl sulfoxide]
[1]
Conditions	mass density [kg/m3]	viscosity [mPa·s]
–	1095.3	1.961

Conditions	refractive index	speed of sound [m/s]
[1], Sing-around technique in a fixed-path interferometer	–	1485
[2], Standard Abbe refractometry	1.4769	–

CO [methanol]
[1]
Conditions	mass density [kg/m3]	viscosity [mPa·s]
–	786.654	0.54

Conditions	refractive index	speed of sound [m/s]
[1], Sing-around technique in a fixed-path interferometer	–	1102.9
[2], Standard Abbe refractometry	1.3269	–

C1CCOC1 [tetrahydrofuran]
[1]
Conditions	mass density [kg/m3]	viscosity [mPa·s]
–	882.008	0.449

Conditions	refractive index	speed of sound [m/s]
[1], Sing-around technique in a fixed-path interferometer	–	1278.2
[2], Standard Abbe refractometry	1.405	–
